{
  "source": "paper PMC9304066",
  "about": "“H2S biogenesis by cystathionine beta-synthase: mechanism of inhibition by aminooxyacetic acid and unexpected role of serine” (Cellular and Molecular Life Sciences: CMLS, 2022)",
  "key": {"tScCBS": {"molecular_target": "T1, tScCBS (Saccharomyces cerevisiae, UniProt P32582)", "T1 construct": "6xHis (C); made in house", "T1 sequence (P32582 1-345)": "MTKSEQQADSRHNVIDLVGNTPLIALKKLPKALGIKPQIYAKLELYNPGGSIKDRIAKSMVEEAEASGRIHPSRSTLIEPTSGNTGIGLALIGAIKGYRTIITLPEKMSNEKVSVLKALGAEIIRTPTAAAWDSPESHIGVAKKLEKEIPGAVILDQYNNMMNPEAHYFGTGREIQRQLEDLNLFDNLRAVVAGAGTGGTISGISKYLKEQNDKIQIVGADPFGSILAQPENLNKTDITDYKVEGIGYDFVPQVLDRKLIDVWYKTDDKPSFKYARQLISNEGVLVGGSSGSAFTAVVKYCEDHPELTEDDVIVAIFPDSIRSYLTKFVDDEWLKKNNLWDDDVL", "assay": "CBS H2S production assay (AzMC fluorometric), tScCBS", "format": "biochemical", "experimental": "(§1) CBS H2S production assay. H2S-producing activity of CBS, utilizing Cys and Hcy, was determined using a fluorometric assay employing the H2S-selective fluorescent probe 7-azido-4-methylcoumarin (AzMC) as described previously. The reaction mixture in a total volume of 200 µL contained 50 mM Tris–HCl pH 8.6, 5 μM PLP, 2 mM Hcy, 10 μM AzMC and 500 ng tScCBS or HsCBS. The plate was incubated for 10 min at 37°C and the enzymatic activity was triggered by adding 0–50 mM Cys. The fluorescence of the mixtures at 450 nm (excited at 365 nm) was followed for 2 h at 37°C. All measurements were performed in triplicates using Tecan Infinite 200 PRO microplate reader. Kinetic data were analyzed using GraphPad Prism software."}, "HsCBS [1]": {"molecular_target": "T2, HsCBS (Homo sapiens, UniProt P35520, DEL516-525)", "T2 construct": "purchased GenScript", "T2 sequence (P35520 with tags, fused parts or gaps DEL516-525)": "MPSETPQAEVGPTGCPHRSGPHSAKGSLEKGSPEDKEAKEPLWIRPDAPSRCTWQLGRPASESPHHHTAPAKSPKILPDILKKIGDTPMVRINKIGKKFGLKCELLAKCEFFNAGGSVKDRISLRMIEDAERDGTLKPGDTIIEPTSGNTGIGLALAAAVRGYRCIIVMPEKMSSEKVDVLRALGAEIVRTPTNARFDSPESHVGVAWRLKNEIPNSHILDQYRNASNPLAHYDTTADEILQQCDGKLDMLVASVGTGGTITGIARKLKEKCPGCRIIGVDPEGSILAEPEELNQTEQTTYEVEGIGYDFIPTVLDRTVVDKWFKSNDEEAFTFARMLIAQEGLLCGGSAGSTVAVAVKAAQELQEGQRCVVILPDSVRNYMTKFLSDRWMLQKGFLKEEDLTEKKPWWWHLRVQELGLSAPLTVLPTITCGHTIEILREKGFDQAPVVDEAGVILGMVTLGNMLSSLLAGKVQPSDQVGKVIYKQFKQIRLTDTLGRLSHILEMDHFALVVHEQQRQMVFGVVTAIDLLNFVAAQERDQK", "assay": "CBS H2S production assay (AzMC fluorometric), HsCBS", "format": "biochemical", "details": "for IC50: AzMC assay, 5 mM Cys + 2 mM Hcy", "experimental": "as §1"}, "HsCBS [2]": {"molecular_target": "T2, HsCBS", "assay": "CBL-LDH coupled-coupled CBS assay, HsCBS", "format": "biochemical", "details": "for Reduction of activity catalyzing condensation of Cys and Hcy yielding H2S: AOAA-inhibited HsCBS (200 µM AOAA); for Vmax / kcat: CBL-LDH coupled-coupled assay", "experimental": "CBS coupled-coupled assay. CBS canonical activity utilizing Ser and Hcy was determined using cystathionine beta-lyase (CBL) and lactate-dehydrogenase (LDH) coupled-coupled assay as described previously with a few modifications. Native L-LDH from rabbit muscle was purchased from Sigma (catalog no. L2500) and recombinant CBL was purchased from Creative Enzymes (catalog no. NATE-1146). In a final volume of 150 µL, the reaction mixture contained 50 mM Tris–HCl pH 8.9, 20 µM PLP, 500 µM NADH, 1.3 µM LDH, 0.1 µM CBL, 0–20 mM Ser (or 0–50 mM Cys) and 500 ng of tScCBS or HsCBS. Assays with HsCBS were carried out in the absence or presence of 500 µM CBS allosteric activator S-adenosylmethionine (SAM). The reaction was triggered by the addition of 2 mM Hcy and the oxidation of NADH to NAD^+ was followed by monitoring the decrease in absorbance at 340 nm over time (ε340 = 6220 M^−1.cm^−1). […] All measurements were performed in triplicates using Tecan Infinite 200 PRO microplate reader. Kinetic data were analyzed using GraphPad Prism software."}, "HEK293 cells": {"tested_on": "HEK293 cells", "assay": "Bioenergetic analysis (Seahorse XFe24 flux analyzer)", "format": "cell-based, human", "experimental": "Bioenergetic analysis. The Seahorse XFe24 flux analyzer (Agilent Technologies, Santa Clara, CA, USA) was used to estimate mitochondrial respiration of HEK293 cells. Cells were seeded in Seahorse XFe24 Cell Culture Microplates at density of 15,000 cells/well in a total volume of 200 µl, incubated for 2 h, followed by treatment for 24 h as described above for H2S live imaging. Next day, culture medium was replaced for Seahorse XF DMEM supplemented with 2 mM glutamine, 1 mM pyruvate and 10 mM glucose. The microplate was then incubated in a CO2-free incubator at 37°C for 1 h, to allow temperature and pH equilibration, as recommended by the manufacturer. The assay protocol included two measurements of basal values of oxygen consumption rate (OCR), followed by the injection of 1 µM oligomycin, used to evaluate ATP generation rate. Subsequently, the mitochondrial oxidative phosphorylation uncoupler FCCP (0.2 µM) was added to estimate maximal mitochondrial respiratory capacity. Lastly, 0.5 µM of rotenone and antimycin A (each) were injected to inhibit the electron flux through the complex I and III, respectively, aiming to detect the extra-mitochondrial OCR. Data were analyzed with Wave package (version 2.6; Agilent Technologies, Santa Clara, CA, USA) and GraphPad Prism 8 (GraphPad Software Inc.; San Diego, CA, USA)."}},
  "data": [
    {"smiles": "NOCC(=O)O", "note": "[AOAA, aminooxyacetic acid]", "values": [
      {"measurement": "Inhibition of CBS activity", "setting": "tScCBS; 200 µM AOAA, then excess removed by desalting column, range printed for tScCBS and HsCBS together", "value": "75–92%"},
      {"measurement": "IC50", "setting": "tScCBS; tScCBS, AzMC assay, 5 mM Cys + 2 mM Hcy", "value": 9.1, "unit": "µM"},
      {"measurement": "IC50", "setting": "HsCBS [1]; HsCBS in the absence of SAM", "value": 12.8, "unit": "µM"},
      {"measurement": "IC50", "setting": "HsCBS [1]; HsCBS in the presence of 500 µM SAM", "value": 10.9, "unit": "µM"},
      {"measurement": "Reduction of activity catalyzing condensation of Cys and Hcy yielding H2S", "setting": "HsCBS [2]; absence of SAM", "value": 63, "unit": "%"},
      {"measurement": "Reduction of activity catalyzing condensation of Cys and Hcy yielding H2S", "setting": "HsCBS [2]; presence of SAM", "value": 71, "unit": "%"},
      {"measurement": "Effect on condensation of Ser and Hcy (canonical reaction)", "setting": "HsCBS [2]; HsCBS ± 500 µM SAM inhibited by 200 µM AOAA, 5 mM Ser + 2 mM Hcy", "value": "not impaired"},
      {"measurement": "Bioenergetics parameters (basal respiration, maximal respiration, ATP production)", "setting": "HEK293 cells; HEK293, 150 µM AOAA, 24 h", "value": "significant decrease"}
    ]},
    {"smiles": "N[C@@H](CO)C(=O)O", "note": "[Ser, serine]", "values": [
      {"measurement": "Recovery of activity of AOAA-inhibited enzyme", "setting": "tScCBS; tScCBS, 1 mM Ser after 200 µM AOAA incubation, then desalting", "value": "substantial recovery"},
      {"measurement": "Recovery of activity of AOAA-inhibited enzyme", "setting": "HsCBS [1]; HsCBS in the absence and presence of SAM, 1 mM Ser after 200 µM AOAA incubation, then desalting", "value": "substantial recovery"},
      {"measurement": "Vmax", "setting": "HsCBS [2]; HsCBS + SAM", "value": "156.3 ± 7.6", "unit": "µmol/h/mg"},
      {"measurement": "kcat", "setting": "HsCBS [2]; HsCBS + SAM", "value": "2.7 ± 0.1", "unit": "s⁻¹"},
      {"measurement": "Vmax", "setting": "HsCBS [2]; HsCBS – SAM", "value": "37.2 ± 1.5", "unit": "µmol/h/mg"},
      {"measurement": "kcat", "setting": "HsCBS [2]; HsCBS – SAM", "value": "0.63 ± 0.06", "unit": "s⁻¹"},
      {"measurement": "Impact on mitochondrial function", "setting": "HEK293 cells; HEK293, 1, 3 and 10 mM Ser alone, 24 h", "value": "did not have any significant impact"},
      {"measurement": "Cellular bioenergetics compared to untreated controls", "setting": "HEK293 cells; HEK293 inhibited by 150 µM AOAA, supplemented with 1, 3 or 10 mM Ser", "value": "correction or normalization"}
    ]}
  ]
}
